What was measured:
Assay in all cases: Drug affinity chromatography with c-ponatinib and LC-MS/MS (ponatinib interactome)
Assay type in all cases: binding
[1] = biological target: T1, proteins of U2OS cell lysate (Homo sapiens, UniProt P55884); details: captured protein EIF3B, Rank 123
T1 construct: Proteins enriched by c-ponatinib from U2OS cell lysate; endogenous in cells; host or cells: U2OS cell lysate
Procedure, shortened: (§1)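 U2OS cell lysate in NP-40 lysis buffer (2 mg protein per pulldown) was incubated with amine-derivatized NHS beads for 2 h at 4 °C. Bound proteins were washed, eluted with 100 mM formic acid, reduced, alkylated and trypsin-digested, then identified by nano-UPLC–MS/MS on Orbitrap instruments with a 60 min gradient.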

[2] = biological target: T2, proteins of U2OS cell lysate (Homo sapiens, UniProt P07355); details: ANXA2;ANXA2P2, Annexin A2
T2 construct: Proteins enriched by c-ponatinib from U2OS cell lysate; endogenous in cells; host or cells: U2OS cell lysate
T2 sequence (P07355 whole entry): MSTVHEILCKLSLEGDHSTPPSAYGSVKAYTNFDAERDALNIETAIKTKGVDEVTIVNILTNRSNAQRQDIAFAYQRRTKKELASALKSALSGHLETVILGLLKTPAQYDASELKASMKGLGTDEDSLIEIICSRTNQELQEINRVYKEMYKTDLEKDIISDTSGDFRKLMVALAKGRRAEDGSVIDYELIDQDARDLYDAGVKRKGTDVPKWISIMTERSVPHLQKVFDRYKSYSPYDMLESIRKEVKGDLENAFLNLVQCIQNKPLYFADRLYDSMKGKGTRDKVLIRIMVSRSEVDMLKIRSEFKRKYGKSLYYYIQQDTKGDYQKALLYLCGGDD
Procedure, shortened: as §1

[3] = biological target: T3, proteins of U2OS cell lysate (Homo sapiens, UniProt P12931); details: SRC, Proto-oncogene tyrosine-protein kinase Src
T3 construct: Proteins enriched by c-ponatinib from U2OS cell lysate; endogenous in cells; host or cells: U2OS cell lysate
Procedure, shortened: as §1

[4] = biological target: T4, proteins of U2OS cell lysate (Homo sapiens, UniProt P26368); details: U2AF2, Splicing factor U2AF 65 kDa subunit
T4 construct: Proteins enriched by c-ponatinib from U2OS cell lysate; endogenous in cells; host or cells: U2OS cell lysate
Procedure, shortened: as §1

[5] = biological target: T5, proteins of U2OS cell lysate (Homo sapiens, UniProt P28066); details: PSMA5, Proteasome subunit alpha type-5
T5 construct: Proteins enriched by c-ponatinib from U2OS cell lysate; endogenous in cells; host or cells: U2OS cell lysate
T5 sequence (P28066 whole entry): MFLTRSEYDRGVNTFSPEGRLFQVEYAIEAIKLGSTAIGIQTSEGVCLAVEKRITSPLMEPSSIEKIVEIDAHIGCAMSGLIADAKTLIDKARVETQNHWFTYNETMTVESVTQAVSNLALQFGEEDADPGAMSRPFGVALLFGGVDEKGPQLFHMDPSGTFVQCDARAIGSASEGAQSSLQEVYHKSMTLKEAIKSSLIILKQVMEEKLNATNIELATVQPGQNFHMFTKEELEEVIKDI
Procedure, shortened: as §1

[6] = biological target: T6, proteins of U2OS cell lysate (Homo sapiens, UniProt P35580); details: MYH10, Myosin-10
T6 construct: Proteins enriched by c-ponatinib from U2OS cell lysate; endogenous in cells; host or cells: U2OS cell lysate
T6 sequence (P35580 whole entry): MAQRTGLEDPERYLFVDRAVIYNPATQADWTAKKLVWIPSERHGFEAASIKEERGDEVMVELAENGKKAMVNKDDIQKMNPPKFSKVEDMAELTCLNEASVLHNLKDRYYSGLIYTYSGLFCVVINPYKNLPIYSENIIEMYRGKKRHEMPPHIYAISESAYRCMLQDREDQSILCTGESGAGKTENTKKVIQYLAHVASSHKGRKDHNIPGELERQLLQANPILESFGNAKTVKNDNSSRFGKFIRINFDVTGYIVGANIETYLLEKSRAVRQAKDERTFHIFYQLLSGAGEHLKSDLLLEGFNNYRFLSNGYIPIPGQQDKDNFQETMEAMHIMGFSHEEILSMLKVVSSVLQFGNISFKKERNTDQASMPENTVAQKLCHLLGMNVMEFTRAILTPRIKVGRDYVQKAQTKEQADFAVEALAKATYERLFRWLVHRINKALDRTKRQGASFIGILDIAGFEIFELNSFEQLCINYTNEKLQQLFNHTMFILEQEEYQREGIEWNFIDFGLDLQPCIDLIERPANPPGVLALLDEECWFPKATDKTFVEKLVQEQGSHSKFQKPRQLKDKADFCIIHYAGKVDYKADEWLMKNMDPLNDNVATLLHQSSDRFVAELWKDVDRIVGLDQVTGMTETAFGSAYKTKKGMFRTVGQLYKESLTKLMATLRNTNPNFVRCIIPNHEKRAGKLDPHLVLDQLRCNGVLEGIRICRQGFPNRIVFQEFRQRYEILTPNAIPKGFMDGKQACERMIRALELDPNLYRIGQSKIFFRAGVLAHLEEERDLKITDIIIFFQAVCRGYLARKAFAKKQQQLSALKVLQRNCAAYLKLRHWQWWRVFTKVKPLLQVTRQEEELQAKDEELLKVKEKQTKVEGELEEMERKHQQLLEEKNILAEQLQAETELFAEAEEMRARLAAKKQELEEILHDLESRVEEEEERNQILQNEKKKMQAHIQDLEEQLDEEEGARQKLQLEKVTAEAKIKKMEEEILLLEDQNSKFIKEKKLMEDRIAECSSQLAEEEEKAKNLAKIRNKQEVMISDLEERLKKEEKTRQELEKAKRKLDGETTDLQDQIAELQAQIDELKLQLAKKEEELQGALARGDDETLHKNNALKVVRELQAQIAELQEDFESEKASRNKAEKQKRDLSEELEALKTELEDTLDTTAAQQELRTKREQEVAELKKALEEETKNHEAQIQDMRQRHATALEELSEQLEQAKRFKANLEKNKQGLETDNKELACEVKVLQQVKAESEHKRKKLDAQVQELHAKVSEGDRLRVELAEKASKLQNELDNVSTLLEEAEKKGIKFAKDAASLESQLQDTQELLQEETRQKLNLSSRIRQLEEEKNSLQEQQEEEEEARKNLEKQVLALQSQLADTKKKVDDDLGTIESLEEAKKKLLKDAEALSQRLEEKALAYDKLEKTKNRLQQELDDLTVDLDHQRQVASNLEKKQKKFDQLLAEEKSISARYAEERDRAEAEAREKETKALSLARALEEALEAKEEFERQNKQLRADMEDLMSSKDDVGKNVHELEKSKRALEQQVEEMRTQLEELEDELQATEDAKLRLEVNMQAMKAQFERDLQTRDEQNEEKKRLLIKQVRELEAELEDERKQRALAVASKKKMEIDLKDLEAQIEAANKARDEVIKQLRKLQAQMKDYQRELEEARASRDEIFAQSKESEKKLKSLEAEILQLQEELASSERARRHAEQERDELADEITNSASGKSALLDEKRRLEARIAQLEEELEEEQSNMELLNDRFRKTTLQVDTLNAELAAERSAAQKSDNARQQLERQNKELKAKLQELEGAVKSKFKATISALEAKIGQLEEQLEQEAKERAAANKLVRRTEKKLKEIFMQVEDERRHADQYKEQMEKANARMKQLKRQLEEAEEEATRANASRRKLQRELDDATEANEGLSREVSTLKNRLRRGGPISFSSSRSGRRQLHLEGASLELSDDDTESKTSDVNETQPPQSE
Procedure, shortened: as §1

[7] = biological target: T7, proteins of U2OS cell lysate (Homo sapiens, UniProt P38646); details: HSPA9, Stress-70 protein, mitochondrial
T7 construct: Proteins enriched by c-ponatinib from U2OS cell lysate; endogenous in cells; host or cells: U2OS cell lysate
T7 sequence (P38646 47-679): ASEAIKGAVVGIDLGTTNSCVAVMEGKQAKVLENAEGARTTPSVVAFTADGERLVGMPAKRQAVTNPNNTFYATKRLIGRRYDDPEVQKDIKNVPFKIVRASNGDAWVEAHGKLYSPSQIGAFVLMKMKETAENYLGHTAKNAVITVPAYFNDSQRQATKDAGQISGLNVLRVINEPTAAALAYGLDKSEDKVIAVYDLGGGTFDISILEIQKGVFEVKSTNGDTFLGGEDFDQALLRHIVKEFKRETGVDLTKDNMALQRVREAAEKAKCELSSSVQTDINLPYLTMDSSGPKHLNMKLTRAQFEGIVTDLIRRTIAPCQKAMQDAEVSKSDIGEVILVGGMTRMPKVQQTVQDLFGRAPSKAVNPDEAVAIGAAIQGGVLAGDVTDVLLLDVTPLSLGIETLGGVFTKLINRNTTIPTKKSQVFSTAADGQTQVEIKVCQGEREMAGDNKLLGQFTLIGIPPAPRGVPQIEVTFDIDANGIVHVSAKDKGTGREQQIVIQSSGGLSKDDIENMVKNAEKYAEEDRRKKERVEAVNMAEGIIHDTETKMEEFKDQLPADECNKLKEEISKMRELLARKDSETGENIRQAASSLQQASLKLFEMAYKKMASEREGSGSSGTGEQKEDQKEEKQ
Procedure, shortened: as §1

[8] = biological target: T8, proteins of U2OS cell lysate (Homo sapiens, UniProt P54760); details: EPHB4, Ephrin type-B receptor 4
T8 construct: Proteins enriched by c-ponatinib from U2OS cell lysate; endogenous in cells; host or cells: U2OS cell lysate
Procedure, shortened: as §1

[9] = biological target: T9, proteins of U2OS cell lysate (Homo sapiens, UniProt P55036); details: PSMD4, 26S proteasome non-ATPase regulatory subunit 4
T9 construct: Proteins enriched by c-ponatinib from U2OS cell lysate; endogenous in cells; host or cells: U2OS cell lysate
T9 sequence (P55036 whole entry): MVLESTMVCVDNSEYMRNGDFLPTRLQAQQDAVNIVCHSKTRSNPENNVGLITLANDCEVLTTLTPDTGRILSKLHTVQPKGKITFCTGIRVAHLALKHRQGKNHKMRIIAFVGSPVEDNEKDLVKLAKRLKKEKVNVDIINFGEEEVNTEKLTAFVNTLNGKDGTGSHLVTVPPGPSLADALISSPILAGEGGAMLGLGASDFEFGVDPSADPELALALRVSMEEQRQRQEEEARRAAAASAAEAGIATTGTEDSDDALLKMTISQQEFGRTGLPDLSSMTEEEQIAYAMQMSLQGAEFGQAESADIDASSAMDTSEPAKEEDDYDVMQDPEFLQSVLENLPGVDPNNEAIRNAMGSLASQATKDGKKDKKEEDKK
Procedure, shortened: as §1

[10] = biological target: T10, proteins of U2OS cell lysate (Homo sapiens, UniProt P56381); details: ATP5E;ATP5EP2, ATP synthase subunit epsilon, mitochondrial
T10 construct: Proteins enriched by c-ponatinib from U2OS cell lysate; endogenous in cells; host or cells: U2OS cell lysate
T10 sequence (P56381 whole entry): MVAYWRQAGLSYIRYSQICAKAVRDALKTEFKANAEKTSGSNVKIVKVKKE
Procedure, shortened: as §1

[11] = biological target: T11, proteins of U2OS cell lysate (Homo sapiens, UniProt P62081); details: RPS7, 40S ribosomal protein S7
T11 construct: Proteins enriched by c-ponatinib from U2OS cell lysate; endogenous in cells; host or cells: U2OS cell lysate
Procedure, shortened: as §1

[12] = biological target: T12, proteins of U2OS cell lysate (Homo sapiens, UniProt P62491); details: RAB11A;RAB11B, Ras-related protein Rab-11A
T12 construct: Proteins enriched by c-ponatinib from U2OS cell lysate; endogenous in cells; host or cells: U2OS cell lysate
Procedure, shortened: as §1

[13] = biological target: T13, proteins of U2OS cell lysate (Homo sapiens, UniProt Q00536); details: CDK16, Cyclin-dependent kinase 16
T13 construct: Proteins enriched by c-ponatinib from U2OS cell lysate; endogenous in cells; host or cells: U2OS cell lysate
T13 sequence (Q00536 whole entry): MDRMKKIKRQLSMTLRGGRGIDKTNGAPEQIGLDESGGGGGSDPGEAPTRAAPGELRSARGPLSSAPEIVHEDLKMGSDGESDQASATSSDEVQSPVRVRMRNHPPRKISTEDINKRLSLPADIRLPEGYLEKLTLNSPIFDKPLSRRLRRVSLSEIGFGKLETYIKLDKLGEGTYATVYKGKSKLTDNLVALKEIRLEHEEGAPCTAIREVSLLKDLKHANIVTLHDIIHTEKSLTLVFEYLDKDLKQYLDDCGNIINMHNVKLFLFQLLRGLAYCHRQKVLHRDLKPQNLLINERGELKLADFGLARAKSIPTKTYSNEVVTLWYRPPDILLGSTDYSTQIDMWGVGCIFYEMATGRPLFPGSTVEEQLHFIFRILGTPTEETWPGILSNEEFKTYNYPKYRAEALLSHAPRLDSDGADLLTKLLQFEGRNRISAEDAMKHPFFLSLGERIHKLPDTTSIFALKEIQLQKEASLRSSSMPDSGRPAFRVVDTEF
Procedure, shortened: as §1

[14] = biological target: T14, proteins of U2OS cell lysate (Homo sapiens, UniProt Q14203); details: DCTN1, Dynactin subunit 1
T14 construct: Proteins enriched by c-ponatinib from U2OS cell lysate; endogenous in cells; host or cells: U2OS cell lysate
Procedure, shortened: as §1

[15] = biological target: T15, proteins of U2OS cell lysate (Homo sapiens, UniProt Q14974); details: KPNB1, Importin subunit beta-1
T15 construct: Proteins enriched by c-ponatinib from U2OS cell lysate; endogenous in cells; host or cells: U2OS cell lysate
Procedure, shortened: as §1

[16] = biological target: T16, proteins of U2OS cell lysate (Homo sapiens, UniProt Q15149); details: PLEC, Plectin
T16 construct: Proteins enriched by c-ponatinib from U2OS cell lysate; endogenous in cells; host or cells: U2OS cell lysate
Procedure, shortened: as §1

[17] = biological target: T17, proteins of U2OS cell lysate (Homo sapiens, UniProt Q16181); details: SEPT7;DKFZp586I031, Septin-7
T17 construct: Proteins enriched by c-ponatinib from U2OS cell lysate; endogenous in cells; host or cells: U2OS cell lysate
Procedure, shortened: as §1

[18] = biological target: T18, proteins of U2OS cell lysate (Homo sapiens, UniProt Q69YQ0); details: SPECC1L, Cytospin-A
T18 construct: Proteins enriched by c-ponatinib from U2OS cell lysate; endogenous in cells; host or cells: U2OS cell lysate
Procedure, shortened: as §1

[19] = biological target: T19, proteins of U2OS cell lysate (Homo sapiens, UniProt Q9Y224); details: C14orf166, UPF0568 protein C14orf166
T19 construct: Proteins enriched by c-ponatinib from U2OS cell lysate; endogenous in cells; host or cells: U2OS cell lysate
Procedure, shortened: as §1

T1 sequence (P55884 whole entry): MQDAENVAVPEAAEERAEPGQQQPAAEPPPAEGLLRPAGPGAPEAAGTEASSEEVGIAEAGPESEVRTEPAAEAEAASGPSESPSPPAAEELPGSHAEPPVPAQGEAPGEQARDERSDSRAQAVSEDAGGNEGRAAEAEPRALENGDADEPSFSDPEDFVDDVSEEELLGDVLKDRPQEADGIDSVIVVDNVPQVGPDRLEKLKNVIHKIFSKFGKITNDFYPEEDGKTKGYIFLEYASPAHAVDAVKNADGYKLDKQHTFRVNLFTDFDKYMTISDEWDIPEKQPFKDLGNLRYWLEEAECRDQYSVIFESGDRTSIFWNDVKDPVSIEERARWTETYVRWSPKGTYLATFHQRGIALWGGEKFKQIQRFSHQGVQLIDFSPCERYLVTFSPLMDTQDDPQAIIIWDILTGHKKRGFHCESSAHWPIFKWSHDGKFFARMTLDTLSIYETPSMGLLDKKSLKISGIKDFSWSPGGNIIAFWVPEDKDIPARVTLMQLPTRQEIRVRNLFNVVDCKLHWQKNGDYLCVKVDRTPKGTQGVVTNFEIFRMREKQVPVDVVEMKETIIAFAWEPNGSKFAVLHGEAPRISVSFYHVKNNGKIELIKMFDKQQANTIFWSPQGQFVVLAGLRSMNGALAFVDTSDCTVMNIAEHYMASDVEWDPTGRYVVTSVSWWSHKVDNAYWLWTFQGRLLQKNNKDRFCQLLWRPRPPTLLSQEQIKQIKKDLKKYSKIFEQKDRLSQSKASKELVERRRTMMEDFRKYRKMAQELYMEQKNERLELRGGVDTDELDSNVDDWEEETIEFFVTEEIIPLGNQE

Row | SMILES | Average LFQ intensity [1] | Average LFQ PON_WT [2] | Average LFQ PON_WT [3] | Average LFQ PON_WT [4] | Average LFQ PON_WT [5] | Average LFQ PON_WT [6] | Average LFQ PON_WT [7] | Average LFQ PON_WT [8] | Average LFQ PON_WT [9] | Average LFQ PON_WT [10] | Average LFQ PON_WT [11] | Average LFQ PON_WT [12] | Average LFQ PON_WT [13] | Average LFQ PON_WT [14] | Average LFQ PON_WT [15] | Average LFQ PON_WT [16] | Average LFQ PON_WT [17] | Average LFQ PON_WT [18] | Average LFQ PON_WT [19]
1 | Cc1ccc(C(=O)Nc2ccc(CN3CCN(CCCN)CC3)c(C(F)(F)F)c2)cc1C#Cc1cnc2cccnn12 [c-ponatinib, reference compound] | 23.0265 |  |  |  |  |  |  |  |  |  |  |  |  |  |  |  |  |  | 
2 | Cc1ccc(C(=O)Nc2ccc(CN3CCN(C)CC3)c(C(F)(F)F)c2)cc1C#Cc1cnc2cccnn12 [PON] |  | 23.7363 | 24.0256 | 21.5048 | 20.0873 | 20.7261 | 24.6608 | 25.577 | 21.0725 | 23.9529 | 20.8944 | 22.3634 | 24.4833 | 21.0359 | 23.6067 | 27.1637 | 23.204 | 20.8707 | 20.4304
